The test system of one test is SH-SY5Y cells. Briefly: Cell penetration efficiency in human neuroblastoma cells, 4 μM, flow cytometry. The format is cell-based. Conditions: one hour; for Score / Score/TAT: 4 μM FITC-conjugated peptide; for Score: intracellular fluorescence by flow cytometry; for Score/TAT: ratio to FITC-conjugated TAT; for cell permeability compared with TAT: 4 μM FITC-conjugated CPP, flow cytometry. The protocol: The cell penetration efficiency of the cationic CPPs selected in Example 1 was evaluated in neuroblastoma. In further detail, SH-SYSY cells, which is a human neuroblastoma cell line, were seeded in 24-well plates to have a cell density of 1×10^7 cells/well, and cultured in 10% FBS-added DMEM under conditions of 37° C. and 5% CO2 for 24 hours. In addition, the cells were treated with 4 μM each of FITC-conjugated CPPs (C12, C14, C16, C31, C52, and C67), or FITC-conjugated TAT, and incubated for one hour. After the termination of the incubation, the cells were transferred to a sterile tube using 0.25% trypsin and centrifuged to remove the medium. Afterward, the cells were washed with 500 μL of D-PBS twice to completely remove the medium, and finally, resuspended in 400 μL of D-PBS and intracellular fluorescence was measured by flow cytometry (FACSCanto II).
To evaluate the cell penetration efficiency of the additionally selected cationic CPPs, an experiment was conducted using human epidermal cells or human neuroblastoma cells. In further detail, HaCAT cells, which is a human epidermal cell line, or SH-SYSY cells, which is a human neuroblastoma cell line, were seeded in 24-well plates to have a cell density of 1×10^7 cells/well and cultured in 10% FBS-added DMEM under conditions of 37° C. and 5% CO2 for 24 hours. In addition, the cells were treated with 4 μM each of FITC-conjugated peptides and FITC-conjugated TAT for one hour. After the completion of the culture, the cells were transferred to a sterile tube using 0.25% trypsin and centrifuged to remove the medium. Afterward, the cells were washed with 500 μL of D-PBS twice to completely remove the medium, and finally, resuspended in 400 μL of D-PBS and intracellular fluorescence was measured by flow cytometry (FACSCanto II).
(§1) Subsequently, to confirm whether the CPPs according to the present invention show excellent cell permeability into different types of cells/tissues, various tissue-derived cells were treated with biologically active molecule-conjugated CPPs to compare its delivery capacity with TAT. As in the previous examples, each cell was aliquoted in a plate at an appropriate density, and cultured in a 10% FBS-added medium under a condition of 37° C. and 5% CO2 for 24 hours. Subsequently, the cells were treated with 4 μM each of FITC-conjugated CPP or FITC-conjugated TAT and incubated for one hour. After the completion of the incubation, the cells were transferred to a sterile tube using 0.25% trypsin and centrifuged to remove the medium. Afterward, the cells were washed with 500 μL of D-PBS twice to completely remove the medium, and finally, resuspended in 400 μL of D-PBS and intracellular fluorescence was measured by flow cytometry (FACSCanto II).

In a further test the test system is HeLa cell line. The test can be described thus: Cell penetration efficiency using cervical cancer cells. It counts as cell-based. Conditions: 4 μM FITC-conjugated CPP, one hour. The protocol:
as §1

A further test relates to HEK293T cell line. Briefly: Cell penetration efficiency using kidney cells. The format is cell-based. To be noted: 4 μM FITC-conjugated CPP, one hour. The protocol:
as §1

A further test deals with HGB cell line. The test can be described thus: Cell penetration efficiency in glioblastoma cells. It counts as cell-based, human. To be noted: 4 μM FITC-conjugated CPP, one hour. The protocol: as §1
In a further test the test system is HT1080 cell line. The test can be described thus: Cell penetration efficiency using connective tissue (fibrosarcoma) cells. The format is cell-based. Conditions: 4 μM FITC-conjugated CPP, one hour. The protocol:
as §1

In the case of RALKLRRRRRAVLP [C68], in the test on SH-SY5Y cells, the Score came to 0 and the Score/TAT was found to be 0.000.
On to AVKRRRRRALAKRP [C149], for which, in the test with SH-SY5Y cells, the “cell permeability compared with TAT” value was “higher cell permeability”, the Score is 657 and the Score/TAT is recorded as 1.266.
On to RRREPLRARARVRR [C387], for which, in the test on SH-SY5Y cells, the “cell permeability compared with TAT” value is “higher cell permeability”, the Score was 560 and the Score/TAT came to 1.079. For the same sequence, the “cell permeability compared with TAT” value in the test with HeLa cell line is “higher cell permeability”. In addition, in the test on HEK293T cell line, the “cell permeability compared with TAT” value was “higher cell permeability”.
For LRRVETLRRRKQPR [C319], in the test on SH-SY5Y cells, the Score is given as 436 and the Score/TAT is listed as 0.840. The “cell permeability compared with TAT” value with HeLa cell line was “higher cell permeability”. Moreover, in the test with HEK293T cell line, the “cell permeability compared with TAT” value is listed as “higher cell permeability”.
For RALRRRAARAARRP [C37], in the test with SH-SY5Y cells, the Score is recorded as 0 and the Score/TAT was 0.000.
For RLRAIRRRRRSLDP [C219], in the test with SH-SY5Y cells, the Score worked out at 453 and the Score/TAT turned out to be 0.873. The “cell permeability compared with TAT” value with HeLa cell line is reported as “higher cell permeability”.
As to KARARRILRRRETP [C190], in the test with SH-SY5Y cells, the “cell permeability compared with TAT” value is “higher cell permeability”, the Score came out at 579 and the Score/TAT is recorded as 1.116. In addition, the “cell permeability compared with TAT” value in the test with HGB cell line is given as “higher cell permeability”.
For the sequence RLKEERLKKRRRSP [C264], in the test with SH-SY5Y cells, the Score is recorded as 268 and the Score/TAT amounted to 0.516.
The like results for RRRQRKEKVRNQKP [C57] were, in that order, 0 and 0.000.
Regarding RKVLPRKQKRKRVK [C214], in the test with SH-SY5Y cells, the Score is reported as 459 and the Score/TAT was found to be 0.884. Further, in the test with HeLa cell line, the “cell permeability compared with TAT” value is “higher cell permeability”.
As for RERKRAARKKIKKP [C210], in the test on SH-SY5Y cells, the Score is on record as 386 and the Score/TAT is listed as 0.744.
Turning to AIKRRRRRALAKRP [C148], in the test on SH-SY5Y cells, the “cell permeability compared with TAT” value was “higher cell permeability”, the Score stood at 669 and the Score/TAT is on record as 1.289. For the same sequence, in the test with HeLa cell line, the “cell permeability compared with TAT” value is “higher cell permeability”.
With RPIRKLVRKAREKR [C168], in the test with SH-SY5Y cells, the “cell permeability compared with TAT” value is listed as “higher cell permeability”, the Score is on record as 608 and the Score/TAT is listed as 1.171. For the same sequence, the “cell permeability compared with TAT” value with HGB cell line is “higher cell permeability”.
As to RSPARKRVRAQKKR [C360], in the test with SH-SY5Y cells, the Score stood at 388 and the Score/TAT was 0.748.
As for RPRRKKQVKRIGKR [C379], in the test with SH-SY5Y cells, the Score is on record as 391 and the Score/TAT was 0.753. The “cell permeability compared with TAT” value in the test with HeLa cell line is “higher cell permeability”.
For KARARRILRRREAP [C191], in the test on SH-SY5Y cells, the “cell permeability compared with TAT” value is recorded as “higher cell permeability”, the Score was 592 and the Score/TAT came to 1.141. Moreover, in the test on HGB cell line, the “cell permeability compared with TAT” value is on record as “higher cell permeability”. Moreover, in the test with HeLa cell line, the “cell permeability compared with TAT” value was “higher cell permeability”.
Consider RRKVVREKRKRKLP [C203], for which, in the test on SH-SY5Y cells, the “cell permeability compared with TAT” value was “higher cell permeability”, the Score amounted to 544 and the Score/TAT was 1.048. For the same sequence, the “cell permeability compared with TAT” value with HeLa cell line is listed as “higher cell permeability”.
For the sequence LDRERRRKKAERRP [C312], in the test on SH-SY5Y cells, the Score was determined as 271 and the Score/TAT was found to be 0.522.
In the case of RVAALLRRRRRERP [C202], the “cell permeability compared with TAT” value with SH-SY5Y cells, in the test with HGB cell line, in the test on HeLa cell line and in the test with HT1080 cell line was “higher cell permeability” in each case. In the test on SH-SY5Y cells, this sequence yielded a Score of 727. In addition, the Score/TAT with SH-SY5Y cells amounted to 1.401.

For the origin of these results see patent US11884750B2, “Cationic cell penetrating peptides and the use thereof” (CELLTROY CO., LTD., priority 2021, dated 2024).
